In patent US10406134B2, “Methods of treating an overweight subject” (Zafgen, Inc., priority 2010, dated 2019):
pEC50: −log10 of the molar value.

Tests used:
[1] = 7-day oral weight loss study in diet-induced obese mice; assay type: in vivo, C57BL/6NTac mice; details: DIO mice; for weight change over the course of the study: 1.0 mg/kg oral once a day for 7 days
Method: A weight loss study was conducted in obese mice. The mice in this study were not genetically obese, but prior to and during the study, obesity was induced by a high-fat diet. Twelve week-old C57BL/6NTac mice, maintained on a 60% fat diet prior to and during the study, were separated into seven groups, eight animals per group. Average body weight of the mice was approximately 47 g at the start of the study.
Each of six groups was orally administered 1.0 mg/kg of a compound ([…] compounds B. C, D, E, F and G as disclosed herein), in 10% gelucire in deoinised water. Each of these six groups was administered a different compound. One group was orally administered fumagillin at 1.0 mg/kg (group 201) in 10% gelucire in deoinised water, and one group was administered 10% gelucire in deoinised water (vehicle). Mice received administrations once a day for 7 days.
(Data analyzed by ANCOVA with body weight on Day 1 as covariate followed by multiple tests against vehicle group: *p<0.05; **p<0.01, ***p<0.001.)
A weight loss study was conducted in obese mice, similar to Example 5. Twelve week-old C57BL/6NTac mice, maintained on a 60% fat diet prior to and during the study, were separated into seven groups, eight animals per group. Average body weight of the mice was approximately 47 g at the start of the study.
The group was orally administered […] of a compound H, in 10% gelucire in deoinised water. Mice received administrations once a day for 7 days. After 7 days, the average weight loss of the mice was 13.2%.

[2] = 28-day oral gavage in high fat diet C57BL/6 mice, fat and lean tissue change; assay type: in vivo; details: 0.1 or 0.3 mg/kg oral gavage, 28 days
Method: C57BL/6 mice were conditioned on a low-fat diet (LF), a high fat diet (HF), or a high-fat diet and treated with fumagillin (ZGN-201) administered by oral gavage at doses of 0.1 or 0.3 mg/kg for 28 days. […] To determine whether the weight loss resulted from loss of fat or loss of lean tissue, the percentage change in fat tissue and lean tissue was determined for LF mice, HF mice, HF mice treated with 0.1 mg/kg fumagillin, and HF mice treated with 0.3 mg/kg fumagillin.
Upon histological examination, the studies of treated obese mice show no effect on growth of new blood vessels in growing fat depots and no effect on blood vessel size or density when compared to animals in which weight loss has been induced by simple energy (food) restriction.

[3] = 10-day oral gavage in C57BL/6 mice conditioned on a high fat diet; assay type: in vivo; details: 0.3 or 3 mg/kg daily oral gavage, 10 days
Description: (§1) Oral administration of the MetAP2 inhibitor fumagillin causes an increase in circulating ketone bodies, as measured by concentration of beta hydroxybutyrate, which indicates an increase in the breakdown of stored fat.

[4] = tested on: Thioredoxin-1 (TXN) in B16F10 cells; test: N-terminal chymotryptic fragments of TXN measured by LC/MS in B16F10 cells treated with fumagillin; assay type: cell-based
Method: B16F10 cells were treated with increasing concentrations of fumagillin. N-terminal chymotryptic fragments of TXN were measured by liquid chromatography/mass spectrometry (LC/MS). […] The EC50 of fumagillin to increase Met-TXN acetylated Met-TXN levels is <10 nM.

[5] = tested on: TXN in Cos-1 cells; test: FLAG-tagged TXN expression in transfected Cos-1 cells (gel); assay type: cell-based
Method: (§2) EC50 of fumagillin to increase TXN levels is <10 nM.

[6] = 14-day treatment of high fat diet-fed C57BL/6 mice, body weight and food intake; assay type: in vivo; details: 1 mg/kg
Method: High fat diet-fed C57BL/6 mice were treated with 1 mg/kg of the MetAP2 inhibitor fumagillin (ZGN-201, squares) or vehicle (diamonds) for 14 days (FIG. 10). Body weights (left panel) were determined daily, while food intake (right panel) was assessed every other day by measuring the food consumed by each cage of three mice over the two day period. Data shown in FIG. 10 are means±SEM, n=9 animals. […] First, during the initial two to three days of treatment, no overt changes in food intake or body weight are observed. During this time period key changes in MetAP2 substrates occur, including glyceraldehyde-3-phosphate dehydrogenase and thioredoxin (data not shown). Second, the animals enter a period of rapid weight loss that proceeds until essentially all excess fat deposits are consumed. During this second period, fat oxidation is enhanced and food intake is inhibited.
Weight loss following treatment with therapeutically relevant doses of MetAP2 inhibitors stops once animals attain a normal body composition. […] This third phase can be maintained indefinitely provided the drug is continued (see FIG. 10), or presumably can be maintained in practice through other complementary pharmacologic, dietary, or lifestyle interventions.

[7] = tested on: TXN in 293T cells; test: FLAG-tagged TXN expression in transfected 293T cells (gel); assay type: cell-based; details: 293T cells transfected with FLAG-tagged TXN
Method: as §2

[8] = Oral glucose tolerance test (OGTT) in overweight dogs; assay type: in vivo
Method: (§3) The effects of an 8 week treatment with ZGN-201 (ZGN) on body weight and metabolic parameters in 6 overweight dogs (3 HFF and 3 chow-fed (OWC)) were evaluated. The study was comprised of three phases—pretreatment (PT: 4 weeks), treatment (ZGNTx: 8 weeks), and washout (WO: 4 weeks). FI, BW, blood chemistry and hematology, beta-hydroxybutyrate (BHB), and glycerol were assessed weekly. Oral glucose tolerance tests (OGTT, 0.9 g/kg initial BW) were performed at the end of PT, ZGNTx, and WO.

[9] = 250-day diet admixture in C57BL/6 mice conditioned on a high fat diet; assay type: in vivo
Method: as §1
In addition to showing an increase in beta hydroxybutyrate concentration, C57BL/6 mice conditioned on a high fat diet and treated with fumagillin (ZGN-201) as a diet admixture (1 mg/kg daily for 250 days) also experienced a reduction in body fat by approximately 40 percent (FIG. 6). Once attaining the maximum weight reduction, mice treated daily with 1 mg/kg fumagillin maintained a weight that was 25% less than that of age-matched mice maintained on normal mouse chow diet (lean mice, FIG. 6) for the duration of the experiment.
Adipose tissue in mice fed a high-fat diet show distinctive crown-like structures not seen in lean mice. These crown-like structures were also absent from the adipose tissue of fumagillin-treated mice.

[10] = 8 week oral treatment in overweight dogs, body weight and metabolic parameters; assay type: in vivo
Method: as §3, with “The study was comprised of three phases—pretreatment (PT: 4 weeks), treatment (ZGNTx: 8 weeks), and washout (WO: 4 weeks).” left out

[11] = diet admixture 1 mg/kg daily, 250 days
[12] = High-fat high fructose dogs, WO
[13] = High-fat high fructose dogs, ZGNTx

With `CO[C@@H]1[C@H](OC(=O)N[C@@H](C(N)=O)C(C)C)CC[C@]2(CO2)[C@H]1[C@@]1(C)O[C@@H]1CC=C(C)C` [B] the “weight change over the course of the study” value (shortened to “weight change over the course”) [1] was “lost weight”.
With `CO[C@@H]1[C@H](OC(=O)NCCC2CCCN2C)CC[C@]2(CO2)[C@H]1[C@@]1(C)O[C@@H]1CC=C(C)C` (some centres unmarked) [C] the “weight change over the course” value [1] was “lost weight”.
`CCN(CC)C/C=C\c1ccccc1S(=O)(=O)Nc1ccc2c(c1C(=O)O)CCCC2` [H] showed an average weight loss ([1]; 100.0 mg/kg oral once a day, after 7 days) of 13.2%.
In the case of `CO[C@@H]1[C@H](OC(=O)/C=C/C=C/C=C/C=C/C(=O)O)CC[C@]2(CO2)[C@H]1[C@@]1(C)O[C@@H]1CC=C(C)C` [fumagillin], the body weight [2] was “reduction in body weight down to the level of low fat fed mice”, the reduction in fat ([2]; HF mice) was 40-50% and the “reduction in lean tissue” value ([2]; HF mice) was 5-10%. The beta hydroxybutyrate concentrations [3] was “increase”, the “free fatty acid concentration” value [3] was “without an increase” and the pEC50 ([4]; Mus musculus, B16-F10, read-out: EC50 to increase Met-TXN acetylated Met-TXN levels) was over 8.00. The “accumulation of N-acetyl TXN(1-4)” value ([4]; increasing concentrations) was “significant accumulation”, the “cellular level of TXN containing an intact N-terminal methionine [TXN(1-4)]” value ([4]; increasing concentrations) was “significantly increased” and the pEC50 ([5]; Chlorocebus aethiops, FIG. 4 gel, cell line (Cos-1 or 293T) not specified, read-out: EC50 to increase TXN levels) was over 8.00. The “expression of TXN” value ([5]; Cos-1 cells transfected with FLAG-tagged TXN) was “significantly increased”, the “food intake during period of rapid weight loss” value ([6]; 14 days, second phase) was “inhibited” and the “food intake after weight loss reaches a nadir” value ([6]; third phase) was “returns to normal levels”. The “expression of TXN” value [7] was “significantly increased”, the “reduction in insulin secretion (C-peptide AUC)” value ([8]; end of 8 week treatment, OGTT) was 32% and the “reversal of the abnormality in the plasma glucose excursion during the OGTT” value ([8]; end of 8 week treatment, OGTT 0.9 g/kg) was 75%. The “improvement in plasma glucose after the drug was washed out” value ([8]; end of washout, OGTT) was “completely reversed”, the “retroperitoneal fat pad weight” value ([9]; 1 mg/kg daily, 250 days) was “more similar to that of age-matched lean mice” and the “size and appearance of epididymal fat, peri-renal fat and liver” value ([9]; 1 mg/kg daily, 250 days) was “more similar to that of age-matched lean mice”. For the same compound, the “maintained weight less than that of age-matched lean mice on normal chow” value ([9]; 1 mg/kg daily, after maximum weight reduction) was 25%, the “fasted glucose and insulin levels, insulin-glucose product” value ([9]; 1 mg/kg, high fat diet mice) was “more similar to that of age-matched lean mice” and the “hydroxybutyrate concentration at longer time points” value [9, 11] was “Increased hydroxybutyrate concentration persisted”. The “reduction in body fat” value [9, 11] was “approximately 40%”, the adipocyte size ([9]; high fat diet mice) was “more similar to that of age-matched lean mice” and the “crown-like structures in adipose tissue” value ([9]; high fat diet mice) was “absent”. For the same compound, the sensitivity to insulin ([9]; mice on a high fat diet) was “normalizes sensitivity to insulin”, the “reduction of FI” value ([10]; HFF dogs) was 29% and the “loss of body weight” value ([10]; HFF dogs, daily oral, 8 weeks) was “approximately 8%”. For the same compound, the “loss of excess BW” value ([10]; HFF dogs, daily oral, 8 weeks) was 81%, the “weight loss sustained after discontinuation of treatment” value ([10]; HFF dogs, eight to ten weeks following discontinuation) was “approximately one half of the initial weight loss was sustained” and the BHB [10, 12] was 39 ± 7 µM. The FI [10, 12] was 1657 ± 147 kcal/day, the Glycerol [10, 12] was 66 ± 25 µM and the BW ([10]; High-fat high fructose dogs, WO (4 weeks washout)) was 31.7 ± 2.9 kg. The BHB [10, 13] was 76 ± 9 µM, the FI [10, 13] was 1187 ± 258 kcal/day and the Glycerol [10, 13] was 131 ± 54 µM. For the same compound, the BW ([10]; High-fat high fructose dogs, ZGNTx (8 weeks treatment)) was 30.8 ± 3.4 kg, the “reduction of FI” value ([10]; OWC dogs) was 9% and the weight gain ([10]; OWC dogs, daily oral, 8 weeks) was “inhibited weight gain”. The BHB ([10]; Overweight chow dogs, WO) was 44 ± 5 µM, the BW ([10]; Overweight chow dogs, WO) was 18.6 ± 0.7 kg and the FI ([10]; Overweight chow dogs, WO) was 1116 ± 22 kcal/day. For the same compound, the Glycerol ([10]; Overweight chow dogs, WO) was 86 ± 33 µM, the BHB ([10]; Overweight chow dogs, ZGNTx) was 48 ± 11 µM and the BW ([10]; Overweight chow dogs, ZGNTx) was 17.8 ± 0.5 kg. For the same compound, the FI ([10]; Overweight chow dogs, ZGNTx) was 1255 ± 64 kcal/day, the Glycerol ([10]; Overweight chow dogs, ZGNTx) was 143 ± 26 µM and the BHB levels ([10]; overweight dogs, treatment) was “increased in HFF only”. For the same compound, the glycerol levels ([10]; overweight dogs, treatment) was “increased” and the “weight change over the course” value [1] was “lost the most weight”.
